Key:
R406 + Luminespib = compound: COc1cc(Nc2ncc(F)c(Nc3ccc4c(n3)NC(=O)C(C)(C)O4)n2)cc(OC)c1OC [R406] + CCNC(=O)c1noc(-c2cc(C(C)C)c(O)cc2O)c1-c1ccc(CN2CCOCC2)cc1 [Luminespib] (partner 0.01 µM); assay: relative viability (nuclei count vs DMSO), 5 days (fraction); higher = more cells survive
Summary of the method: (§1)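 Cells from lung cancer lines were seeded into 1536-well plates and, one day later, dosed by pin tool. Treatments were either a single drug or a fixed dose of an anchor drug with five library-drug doses (not always all listed) in √10 steps. After 5 days, nuclei were stained in a one-step fixation (final 0.05% Triton X-100, 1% formaldehyde, 1 ug/ml Hoechst) and counted on 4× images, and relative viability is the treated-to-vehicle nuclei ratio, as the median of duplicate plates.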

R406 + Dasatinib = compound: COc1cc(Nc2ncc(F)c(Nc3ccc4c(n3)NC(=O)C(C)(C)O4)n2)cc(OC)c1OC [R406] + Cc1nc(Nc2ncc(C(=O)Nc3c(C)cccc3Cl)s2)cc(N2CCN(CCO)CC2)n1 [Dasatinib] (partner 0.075 µM); assay: as above
Summary of the method: as §1

Cell Line	relative viability (R406 + Luminespib; first compound 0.08 µM)	relative viability (R406 + Luminespib; first compound 0.253 µM)	relative viability (R406 + Luminespib; first compound 0.8 µM)	relative viability (R406 + Luminespib; first compound 2.53 µM)	relative viability (R406 + Luminespib; first compound 8 µM)	relative viability (R406 + Dasatinib; first compound 0.08 µM)	relative viability (R406 + Dasatinib; first compound 0.253 µM)	relative viability (R406 + Dasatinib; first compound 0.8 µM)	relative viability (R406 + Dasatinib; first compound 2.53 µM)	relative viability (R406 + Dasatinib; first compound 8 µM)
NCI-H522	1.09	1.31	1.32	0.841	1.04	0.78	0.883	0.869	0.725	0.722
HCC-15	0.289	0.518	0.295	0.298	0.465	0.629	0.735	0.662	0.602	0.331
A-427	0.929	1	1.04	0.398	0.593	0.743	0.746	0.74	0.427	0.54
NCI-H2228	0.145	0.213	0.103	0.0925	0.0961	0.442	0.695	0.646	0.195	0.135
NCI-H1734	0.196	0.193	0.207	0.189	0.16	0.537	0.559	0.459	0.393	0.27
NCI-H441	0.399	0.373	0.432	0.277	0.209	0.669	0.659	0.851	0.429	0.318
PC-3 [JPC-3]	0.743	0.708	0.903	0.485	0.509	0.951	1.09	1.27	0.915	0.737
NCI-H1915	0.819	0.886	0.982		0.624	0.301	0.321	0.31		0.269
NCI-H1666	1.02	1.16	1.03	1.05	0.64	0.811	0.943	0.891	0.648	0.409
HCC-366						0.62	0.799	0.735	0.546	0.235
NCI-H2170	0.641	0.622	0.856	0.366	0.574	0.481	0.579	0.613	0.267	0.324
NCI-H727	0.351	0.521	0.345		0.323	0.347	0.432	0.369		0.3
RERF-LC-KJ	1.25	1.3	1.19	1.25	0.725	0.782	0.878	0.939	0.678	0.503
NCI-H2342	0.757	0.811	0.819	0.581	0.76	0.309	0.321	0.341	0.303	0.277
LC-2-ad	0.982	1.13	0.916	0.456	0.42	0.572	0.649	0.62	0.282	0.203
CAL-12T	0.57	0.516	0.52	0.124	0.138	0.357	0.397	0.483	0.0973	0.0797
SK-LU-1	0.192	0.203	0.191	0.151	0.101	0.164	0.174	0.186	0.0685	0.0703
NCI-H1650	0.185	0.196	0.194	0.184	0.182	0.302	0.362	0.288	0.16	0.168
BEN	0.365	0.343	0.22	0.214	0.392	0.337	0.312	0.309	0.413	0.31
EMC-BAC-2	1.14	1.15	1.27	0.745	0.532	0.293	0.331	0.385	0.186	0.173
LU99A	0.232	0.27	0.244	0.172	0.221	0.553	0.607	0.548	0.377	0.271
ABC-1		0.569	0.27	0.338	0.213	0.535	0.54	0.415	0.363	0.298
NCI-H1793	0.145	0.148	0.18	0.128	0.136	0.407	0.466	0.423	0.184	0.164

Cell Line	relative viability (R406 + Luminespib; first compound 0.08 µM)	relative viability (R406 + Luminespib; first compound 0.253 µM)	relative viability (R406 + Luminespib; first compound 0.8 µM)	relative viability (R406 + Luminespib; first compound 2.53 µM)	relative viability (R406 + Luminespib; first compound 8 µM)	relative viability (R406 + Dasatinib; first compound 0.08 µM)	relative viability (R406 + Dasatinib; first compound 0.253 µM)	relative viability (R406 + Dasatinib; first compound 0.8 µM)	relative viability (R406 + Dasatinib; first compound 2.53 µM)	relative viability (R406 + Dasatinib; first compound 8 µM)
NCI-H2347	0.521	0.16	0.553	0.307	0.272	0.322	0.339	0.324	0.319	0.299
NCI-H1993	0.78	1.11	0.988	0.359	0.577	0.564	0.631	0.704	0.316	0.453
NCI-H322M	0.791	0.827	0.855	0.306	0.35	0.237	0.245	0.26	0.24	0.208
PC-14	0.153	0.171	0.139	0.123	0.126	0.271	0.241	0.283	0.105	0.0312
HARA	0.51	0.638	1.06	0.483	0.193	0.235	0.267	0.296	0.248	0.113
NCI-H2087	0.209	0.123	0.162		0.124	0.782	0.903	1.15		0.481
NCI-H1437	1.14	1.13	1.15	1.23	0.966	0.439	0.408	0.369	0.286	0.131
NCI-H358	0.313	0.555	0.492	0.147	0.136	0.165	0.171	0.113	0.143	0.132
NCI-H1792	0.423	0.424	0.402	0.278	0.176	0.781	0.906	0.871	0.551	0.401
ChaGo-K-1	0.613	0.548	0.652	0.404	0.473	0.568	0.579	0.661	0.498	0.442
NCI-H661	0.887	0.956	0.827	0.977	0.862	0.847	0.824	1.1	0.684	0.402
COR-L23	0.665	0.919	0.71	0.3	0.372	0.464	0.469	0.598	0.379	0.158
COR-L 105	0.757	0.972	0.658	0.551	0.768	0.332	0.387	0.354	0.317	0.204
LK-2	0.187	0.198	0.169	0.163	0.197	0.26	0.303	0.285	0.346	0.201
201T	1.08	1.06	1.07	1	0.655	0.578	0.548	0.502	0.467	0.41
HCC-44	0.975	0.911	1.2	0.458	0.274					
NCI-H647	0.235	0.191	0.348	0.128	0.123	0.168	0.161	0.251	0.108	0.0646
H3255	1.04		0.827	0.69	0.731	0.33		0.372	0.285	0.317
NCI-H650	0.81	0.878	0.879	0.294	0.487	0.463	0.513	0.483	0.426	0.425
NCI-H2023	0.807	0.608	0.801	0.41	0.144	0.519	0.642	0.699	0.357	0.0963
NCI-H23	0.217	0.251	0.228	0.181	0.168	0.7	0.878	0.902		0.748
NCI-H1623	0.435	0.483	0.66	0.371	0.424	0.534	0.507	0.587	0.482	0.526
NCI-H596	0.817	1.2	1.27	0.55	0.132	0.619	0.61	0.686	0.505	0.173

Cell Line	relative viability (R406 + Luminespib; first compound 0.08 µM)	relative viability (R406 + Luminespib; first compound 0.253 µM)	relative viability (R406 + Luminespib; first compound 0.8 µM)	relative viability (R406 + Luminespib; first compound 2.53 µM)	relative viability (R406 + Luminespib; first compound 8 µM)	relative viability (R406 + Dasatinib; first compound 0.08 µM)	relative viability (R406 + Dasatinib; first compound 0.253 µM)	relative viability (R406 + Dasatinib; first compound 0.8 µM)	relative viability (R406 + Dasatinib; first compound 2.53 µM)	relative viability (R406 + Dasatinib; first compound 8 µM)
NCI-H520	0.225	0.25	0.293	0.271	0.226	0.209	0.235	0.223	0.198	0.189
EKVX	0.863	0.885	1.06	0.702	0.74	0.626	0.32	0.511	0.402	0.367
NCI-H1944	0.686	0.805	0.759	0.369	0.517	0.22	0.207	0.209	0.164	0.153
EPLC-272H	0.259	0.264	0.337	0.106	0.0888	0.319	0.39	0.321	0.128	0.102
NCI-H1563	0.542	0.654	0.475	0.485	0.452	0.438	0.507	0.448	0.473	0.376
NCI-H1395	0.502	0.725	0.71	0.466	0.355	0.441	0.444	0.434	0.399	0.356
NCI-H2126	0.826	0.868	0.796	0.597	0.437	0.6	0.619	0.596	0.496	0.243
LXF-289	0.629	0.733	0.713	0.447	0.405	0.229	0.241	0.234	0.135	0.0357
NCI-H2009	1.05	1.09	1.04	0.884	0.993	0.25	0.302	0.328	0.182	0.13
SK-MES-1	0.863	0.858	0.957	0.232	0.137	0.397	0.371	0.363	0.137	0.136
NCI-H2405	0.651	0.954	0.766	0.26	0.241	0.19	0.226	0.224	0.198	0.142
NCI-H1755	0.351	0.459	0.255	0.211	0.334	0.401	0.508	0.407	0.264	0.135
HCC-78						0.362	0.335	0.4	0.307	0.237
LOU-NH91	0.329	0.357	0.278	0.297	0.272	0.593	0.617	0.545	0.354	0.334
NCI-H3122	0.114	0.116	0.132		0.0937	0.743	0.844	0.832		0.491
HCC-827	0.772	0.385	0.563	0.334	0.195	0.309	0.252	0.325	0.312	0.229
SW 1573	0.396	0.44	0.5	0.161	0.107	0.492	0.539	0.602	0.366	0.149
NCI-H1975	0.25	0.227	0.187	0.143	0.116	0.377	0.479	0.379	0.174	0.112
NCI-H1651	1.07	1.2	1.02	0.647	0.793	0.402	0.468	0.451	0.221	0.198
NCI-H460	0.0325	0.0281	0.0243	0.023	0.0248	0.477	0.584	0.586	0.323	0.257
LCLC-103H	0.843	1.05	1.23	0.701	0.663	0.491	0.538	0.539	0.393	0.26
LCLC-97TM1	0.771	0.883	0.72	0.571	0.291	0.83	0.863	0.793	0.722	0.602

— the supplement of paper PMC10307832
